Data published in US11767316B2, “Non-fused thiophene derivatives and their uses” (ENYO PHARMA, priority 2018, dated 2023).
Read-outs that look alike come from different tables or passages of the source.

Key:
[1] = tested on: H1N1 (influenza A/New Caledonia/20/99); assay: Antiviral effect on A549 cells infected with H1N1 (MUNANA neuraminidase readout); assay type: cell-based; settings: H1N1 A/New Caledonia/20/99 at MOI 0.1, 48 h post-infection, MUNANA fluorescence
Method: The antiviral effect of the compounds of the invention have been tested on A549 cell lines infected with H1N1 (influenza A/New Caledonia/20/99).
Human A549 cells (80,000 cells/well in a 96 well plate) were treated with a range of concentration of test compounds and immediately infected by H1N1 A/New Caledonia/20/99 virus (clinical isolate) at MOI of 0.1 in DMEM/1% Penicillin/streptomycin supplemented with 0.25 μg/ml TPCK trypsin (Sigma) and incubated at 37° C. in 5% CO2. 48 h post-infection, supernatants (25 μl) were collected and transferred into a 96-well black flat-bottom plate, mixed with 25 μl PBS with Ca++/Mg++(Thermo Fisher) and 50 μl of 2′-(4-Methylumbelliferyl)-α-D-N-acetylneuraminic acid sodium salt hydrate stock-solution (20 μM, MUNANA, Sigma). Plates were incubated 1 h at 37° C. and reaction is stopped by adding 100 μl of Stop Solution (glycine 0.1 M pH10.7/25% ethanol). The amount of fluorescent product released by MUNANA hydrolysis (4-MU) was measured in a Tecan spectrophotometer with excitation and emission wavelengths of 365 and 450 nm respectively.

NFκB = NFκB reporter assay (NanoLuciferase) in A549 cells, TNFα stimulation; assay type: cell-based; settings: Homo sapiens, 4 ng/ml TNFα, 6 hours
From the text: Compounds of the present invention have been tested for their capacity to inhibit NFκB.
The NFκB reporter construct was made by cloning 5 NFκB responsive elements upstream of a NanoLuciferase reporter gene flanked by AAVS1 genomic sequences.
NFκB Responsive element fused with NanoLuciferase and SV40 late Poly(A) signal was amplified from pNL3.2-NFκB-Nluc (Promega) using NFKB-NLUC-F and NFKB-NLUC-R primers and inserted by Infusion (TaKaRa) in AAVS1 SA-2A-puro-pA donor plasmid (Hockemeyer et al, Nat Biotechnol. 2009, 27, 851-7) digested by Sal1. pCRISPR AAVS1-T2 expressing a guide RNA (gRNA) to target human AAVS1 (T2 target sequence) was constructed by inserting AAVS1-T2A hybridized primers in pLentiCRISPR v2-blast (Sanjana et al, Nat Methods. 2014, 11, 783-4) digested by Bsmb1.
A549 cells were transfected by the plasmids and puromycine selected for 5 days (1 μg mL-1). Then clones were obtained by limiting dilution and selected to maximize TNFα dependent NFkB-NanoLuciferase induction.
The reporter cells were seeded on a 96-well plate for overnight with DMEM including 10% FBS. Test compounds were added at varying concentrations. The cells then were treated with 4 ng/ml TNFα (Peprotech, ref E251) in DMEM+10% FBS. NanoGlo luciferase assay (Promega) was carried out 6 hours later. Luminescence was measured using a Spark 20M spectrofluorimeter (Tecan). Values were normalized to the luminescence measured in untreated cells.

[2] = Influenza A virus, H1N1, A549, 48 h, read-out: IC50

**Q.** How did the IC50 [1, 2] turn out when O=C(Nc1sc(Cl)c(C2CCc3ccccc3C2)c1C(=O)O)c1ccccc1 (stereo not shown) [#17] was run?
**A.** 38.3 nM

**Q.** What about the EC50 (NFκB) of the same compound?
**A.** 180 nM

**Q.** How did the IC50 [1, 2] turn out when O=C(Nc1scc(C2CCc3ccccc32)c1C(=O)O)c1ccccc1 (stereo not shown) [#19] was run?
**A.** 67 nM

**Q.** And the EC50 (NFκB)?
**A.** 200 nM

**Q.** What does the source list for COCCCNc1ccc(C(=O)Nc2scc(C3CCc4ccccc43)c2C(=O)O)cc1 (stereo not shown) [#57]?
**A.** IC50 [1, 2]: 76 nM; EC50 (NFκB): 80 nM

**Q.** Which IC50 [1, 2] does the source give for CN1CCOc2cc(C(=O)Nc3scc(C4CCc5ccccc5C4)c3C(=O)O)ccc21 (stereo not shown) [#86] here?
**A.** 2 nM

**Q.** What about the EC50 (NFκB) of the same compound?
**A.** 40 nM

**Q.** Which results are given for COCCNc1cccc(C(=O)Nc2scc(C3CCc4ccccc4C3)c2C(=O)O)c1 (stereo not shown) [#94]?
**A.** IC50 [1, 2]: 2 nM; EC50 (NFκB): 90 nM

**Q.** With O=C(Nc1scc(C2CCCc3ccccc32)c1C(=O)O)c1ccccc1 (stereo not shown) [#124] as the compound, how does the IC50 [1, 2] read?
**A.** 237 nM

**Q.** What about the EC50 (NFκB) of the same compound?
**A.** 910 nM

**Q.** With O=C(Nc1scc(C2CCc3ccccc3C2)c1C(=O)O)c1ccc(N2C[C@@H]3C[C@H]2CO3)cc1 (stereo partly shown) [#140] as the compound, how does the IC50 [1, 2] read?
**A.** 3.5 nM

**Q.** What about the EC50 (NFκB) of the same compound?
**A.** 40 nM

**Q.** With O=C(Nc1scc(C2CCc3ccccc3C2)c1C(=O)O)c1ccc(F)cc1 (stereo not shown) [#151] as the compound, how does the IC50 ([1]; read-out: IC50) read?
**A.** 2 nM

**Q.** What about the EC50 (NFκB) of the same compound?
**A.** 90 nM

**Q.** How did the IC50 ([1]; read-out: IC50) turn out when O=C(Nc1scc(C2CCc3ccccc3C2)c1C(=O)O)c1ccc(OC(F)F)cc1 (stereo not shown) [#152] was run?
**A.** 2 nM

**Q.** And the EC50 (NFκB)?
**A.** 160 nM

**Q.** Which results are given for COc1ccc(C(=O)Nc2scc(C3CCc4ccccc4C3)c2C(=O)O)cc1F (stereo not shown) [#162]?
**A.** IC50 [1, 2]: 4 nM; EC50 (NFκB): 200 nM

**Q.** Which IC50 [1, 2] does the source give for CC(C)Oc1ccc(C(=O)Nc2scc(C3CCc4ccccc4C3)c2C(=O)O)cc1 (stereo not shown) [#180] here?
**A.** 0.3 nM

**Q.** What about the EC50 (NFκB) of the same compound?
**A.** 50 nM

**Q.** With O=C(O)c1c(C2CCc3ccccc3C2)csc1NC(=O)C12CC(C1)C2 (stereo not shown) [#192] as the compound, how does the IC50 [1, 2] read?
**A.** 347 nM

**Q.** Which IC50 [1, 2] does the source give for O=C(O)c1c(C2CCc3ccccc3C2)csc1NC(=O)C12CC(F)(C1)C2 (stereo not shown) [#193] here?
**A.** 315 nM

**Q.** With N#Cc1ccc(C(=O)Nc2scc(C3CCc4ccccc4C3)c2C(=O)O)cc1 (stereo not shown) [Compound #183, 2-[(4-Cyanobenzoyl)amino]-4-tetralin-2-yl-thiophene-3-carboxylic acid] as the compound, how does the IC50 ([1]; Influenza A virus, H1N1, A549, 48 h) read?
**A.** 462 nM
